Experimental data from US20240158446A1, “CYCLIC COMPOUND HAVING SELECTIVE INHIBITORY ACTION ON KRAS OVER HRAS AND NRAS” (CHUGAI SEIYAKU KABUSHIKI KAISHA, priority 2021, published 2024).

Tests used:
[1] = biological target: GDP-bound HRAS wild-type protein (Homo sapiens, UniProt P01112); test: Binding to HRAS by surface plasmon resonance (SPR), Single Cycle Kinetics; conditions: SPR, GDP-bound HRAS wild-type protein vs GDP-bound KRAS wild-type protein
[2] = biological target: GDP-bound NRAS wild-type protein (Homo sapiens, UniProt P01111); test: Binding to NRAS by surface plasmon resonance (SPR), Single Cycle Kinetics; conditions: SPR, GDP-bound NRAS wild-type protein vs GDP-bound KRAS wild-type protein
[3] = biological target: GDP-bound KRAS wild-type protein (Homo sapiens, UniProt P01116); test: Binding to KRAS by surface plasmon resonance (SPR), Single Cycle Kinetics; conditions: SPR, Single Cycle Kinetics, GDP-bound KRAS wild-type protein; read-out: KRAS KD
Chain of GDP-bound KRAS wild-type protein (P01116 whole entry): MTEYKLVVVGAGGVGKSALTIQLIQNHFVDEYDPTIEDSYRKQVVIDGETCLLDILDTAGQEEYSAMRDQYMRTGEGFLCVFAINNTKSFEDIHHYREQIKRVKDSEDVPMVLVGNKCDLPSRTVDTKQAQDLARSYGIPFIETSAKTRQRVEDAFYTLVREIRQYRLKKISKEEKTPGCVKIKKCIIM

Chain of GDP-bound HRAS wild-type protein (P01112 whole entry): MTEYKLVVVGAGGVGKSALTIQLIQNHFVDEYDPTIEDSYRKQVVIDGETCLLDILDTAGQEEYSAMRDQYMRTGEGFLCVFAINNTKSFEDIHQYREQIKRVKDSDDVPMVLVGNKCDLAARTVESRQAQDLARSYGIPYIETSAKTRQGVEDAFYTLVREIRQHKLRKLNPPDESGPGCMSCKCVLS
Chain of GDP-bound NRAS wild-type protein (P01111 whole entry): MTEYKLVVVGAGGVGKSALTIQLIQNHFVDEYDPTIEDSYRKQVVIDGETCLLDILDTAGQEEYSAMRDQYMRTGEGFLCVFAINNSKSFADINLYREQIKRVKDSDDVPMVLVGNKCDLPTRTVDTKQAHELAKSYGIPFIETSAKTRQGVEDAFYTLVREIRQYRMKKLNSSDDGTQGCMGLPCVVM

Row | SMILES | Kd [3] [nM] | HRAS/KRAS (ratio of KD value for HRAS to KD value for KRAS) [1] | NRAS/KRAS (ratio of KD value for NRAS to KD value for KRAS) [2]
1 | CCO[C@@H]1C[C@H]2C(=O)NC3(CC(C)(C)C3)C(=O)N(C)[C@@H](C(CC)CC)C(=O)N(C)[C@H](C(=O)N3CCCC3)CC(=O)N(C)[C@@H](COC)C(=O)N[C@@H]([C@@H](C)CC)C(=O)N(C)CC(=O)N(C)[C@H]3C/C=C\CCN(C3=O)[C@@H](Cc3ccc(C)cc3)C(=O)N(C)CC(=O)N[C@@H](CCc3ccc(C(F)(F)F)c(Cl)c3)C(=O)N2C1 [PP2144] | 0.48 | A (a compound having 10 or more and less than 20 is denoted as A) | AA (a compound having 20 or more is denoted as AA)
2 | CCC[C@H]1C(=O)N[C@@H]([C@@H](C)CC)C(=O)N(C)CC(=O)N(C)[C@H]2C/C=C\CCN(C2=O)[C@@H](Cc2ccc(C)cc2)C(=O)N(C)CC(=O)N[C@@H](CCc2ccc(C(F)(F)F)c(Cl)c2)C(=O)N2C[C@H](OCC)C[C@H]2C(=O)NC2(CC(C)(C)C2)C(=O)N(C)[C@@H](C(CC)CC)C(=O)N(C)[C@H](C(=O)N(C)C)CC(=O)N1C [PP2146] | 0.33 | A (a compound having 10 or more and less than 20 is denoted as A) | A (a compound having 10 or more and less than 20 is denoted as A)
3 | CCO[C@@H]1C[C@H]2C(=O)NC3(CC(C)(C)C3)C(=O)N(C)[C@@H](C(CC)CC)C(=O)N(C)[C@H](C(=O)N(C)C)CC(=O)N(C)[C@@H](CC)C(=O)N[C@@H]([C@@H](C)CC)C(=O)N(C)CC(=O)N(C)[C@H]3C/C=C\CCN(C3=O)[C@@H](Cc3ccc(C)cc3)C(=O)N(C)CC(=O)N[C@@H](CCc3cc(F)c(C(F)(F)F)c(F)c3)C(=O)N2C1 [PP2147] | 0.33 | B (a compound having 3 or more and less than 10 is denoted as B) | A (a compound having 10 or more and less than 20 is denoted as A)
4 | CCO[C@@H]1C[C@H]2C(=O)NC3(CC(C)(C)C3)C(=O)N(C)[C@@H](C(CC)CC)C(=O)N(C)[C@H](C(=O)N(C)C)CC(=O)N(C)[C@@H](C)C(=O)N[C@@H]([C@@H](C)CC)C(=O)N(C)CC(=O)N(C)[C@H]3C/C=C\CCN(C3=O)[C@@H](Cc3ccc(C)cc3)C(=O)N(C)CC(=O)N[C@@H](CCc3ccc(C(F)(F)F)c(Cl)c3)C(=O)N2C1 [PP2150] | 3.8 | A (a compound having 10 or more and less than 20 is denoted as A) | AA (a compound having 20 or more is denoted as AA)
5 | CCO[C@@H]1C[C@H]2C(=O)NC3(CC(C)(C)C3)C(=O)N(C)[C@@H](C(CC)CC)C(=O)N(C)[C@H](C(=O)N3CCCC3)CC(=O)N(C)[C@@H](C)C(=O)N[C@@H]([C@@H](C)CC)C(=O)N(C)CC(=O)N(C)[C@H]3C/C=C\CCN(C3=O)[C@@H](Cc3ccc(C)cc3)C(=O)N(C)CC(=O)N[C@@H](CCc3ccc(C(F)(F)F)c(Cl)c3)C(=O)N2C1 [PP2152] | 0.67 | A (a compound having 10 or more and less than 20 is denoted as A) | AA (a compound having 20 or more is denoted as AA)
6 | CCO[C@@H]1C[C@H]2C(=O)NC3(CC(C)(C)C3)C(=O)N(C)[C@@H](C(CC)CC)C(=O)N(C)[C@H](C(=O)N(C)C)CC(=O)N(C)[C@@H](CC)C(=O)N[C@@H]([C@@H](C)CC)C(=O)N(C)CC(=O)N(C)[C@H]3C/C=C\CCN(C3=O)[C@@H](Cc3ccc(C)cc3)C(=O)N(C)CC(=O)N[C@@H](CCc3ccc(C(F)(F)F)c(Cl)c3)C(=O)N2C1 [PP2154] | 0.36 | A (a compound having 10 or more and less than 20 is denoted as A) | A (a compound having 10 or more and less than 20 is denoted as A)
7 | CCO[C@@H]1C[C@H]2C(=O)NC3(CC(C)(C)C3)C(=O)N(C)[C@@H](C(CC)CC)C(=O)N(C)[C@H](C(=O)N(C)C)CC(=O)N(C)[C@@H](CC3CC3)C(=O)N[C@@H]([C@@H](C)CC)C(=O)N(C)CC(=O)N(C)[C@H]3C/C=C\CCN(C3=O)[C@@H](Cc3ccc(C(F)(F)F)cc3)C(=O)N(C)CC(=O)N[C@@H](CCc3ccc(C(F)(F)F)c(OC)c3)C(=O)N2C1 [PP2155] | 0.37 | B (a compound having 3 or more and less than 10 is denoted as B) | A (a compound having 10 or more and less than 20 is denoted as A)
8 | CCO[C@@H]1C[C@H]2C(=O)NC3(CC(C)(C)C3)C(=O)N(C)[C@@H](C(CC)CC)C(=O)N(C)[C@H](C(=O)N(C)C)CC(=O)N(C)[C@@H](COC)C(=O)N[C@@H]([C@@H](C)CC)C(=O)N(C)CC(=O)N(C)[C@H]3C/C=C\CCN(C3=O)[C@@H](Cc3ccc(C(F)(F)F)cc3)C(=O)N(C)CC(=O)N[C@@H](CCc3ccc(C(F)(F)F)c(OC)c3)C(=O)N2C1 [PP2157] | 0.19 | A (a compound having 10 or more and less than 20 is denoted as A) | A (a compound having 10 or more and less than 20 is denoted as A)
9 | CCC[C@H]1C(=O)N[C@@H]([C@@H](C)CC)C(=O)N(C)CC(=O)N(C)[C@H]2C/C=C\CCN(C2=O)[C@@H](Cc2ccc(C(F)(F)F)cc2)C(=O)N(C)CC(=O)N[C@@H](CCc2ccc(C(F)(F)F)c(OC)c2)C(=O)N2C[C@H](OCC)C[C@H]2C(=O)NC2(CC(C)(C)C2)C(=O)N(C)[C@@H](C(CC)CC)C(=O)N(C)[C@H](C(=O)N(C)C)CC(=O)N1C [PP2160] | 0.22 | A (a compound having 10 or more and less than 20 is denoted as A) | A (a compound having 10 or more and less than 20 is denoted as A)
10 | CCO[C@@H]1C[C@H]2C(=O)NC3(CC(C)(C)C3)C(=O)N(C)[C@@H](C(CC)CC)C(=O)N(C)[C@H](C(=O)N(C)C)CC(=O)N(C)[C@@H](CC(C)C)C(=O)N[C@@H]([C@@H](C)CC)C(=O)N(C)CC(=O)N(C)[C@H]3C/C=C\CCN(C3=O)[C@@H](Cc3ccc(C(F)(F)F)cc3)C(=O)N(C)CC(=O)N[C@@H](CCc3ccc(C(F)(F)F)c(OC)c3)C(=O)N2C1 [PP2161] | 0.2 | A (a compound having 10 or more and less than 20 is denoted as A) | AA (a compound having 20 or more is denoted as AA)

More lines, in order of falling Kd [3], values ahead:

Row | Kd [3] [nM] | SMILES | HRAS/KRAS (ratio of KD value for HRAS to KD value for KRAS) [1] | NRAS/KRAS (ratio of KD value for NRAS to KD value for KRAS) [2]
11 | 0.58 | CCO[C@@H]1C[C@H]2C(=O)NC3(CC(C)(C)C3)C(=O)N(C)[C@@H](C(CC)CC)C(=O)N(C)[C@H](C(=O)N3CCCC3)CC(=O)N(C)[C@@H](CC)C(=O)N[C@@H]([C@@H](C)CC)C(=O)N(C)CC(=O)N(C)[C@H]3C/C=C\CCN(C3=O)[C@@H](Cc3ccc(C)cc3)C(=O)N(C)CC(=O)N[C@@H](CCc3cc(F)c(C(F)(F)F)c(F)c3)C(=O)N2C1 [PP2149] | A (a compound having 10 or more and less than 20 is denoted as A) | A (a compound having 10 or more and less than 20 is denoted as A)
12 | 0.41 | CCO[C@@H]1C[C@H]2C(=O)NC3(CC(C)(C)C3)C(=O)N(C)[C@@H](C(CC)CC)C(=O)N(C)[C@H](C(=O)N(C)C)CC(=O)N(C)[C@@H](CC3CCC3)C(=O)N[C@@H]([C@@H](C)CC)C(=O)N(C)CC(=O)N(C)[C@H]3C/C=C\CCN(C3=O)[C@@H](Cc3ccc(C)cc3)C(=O)N(C)CC(=O)N[C@@H](CCc3ccc(C(F)(F)F)c(Cl)c3)C(=O)N2C1 [PP2156] | A (a compound having 10 or more and less than 20 is denoted as A) | AA (a compound having 20 or more is denoted as AA)
13 | 0.41 | CCO[C@@H]1C[C@H]2C(=O)NC3(CC(C)(C)C3)C(=O)N(C)[C@@H](C(CC)CC)C(=O)N(C)[C@H](C(=O)N3CCCC3)CC(=O)N(C)[C@@H](C)C(=O)N[C@@H]([C@@H](C)CC)C(=O)N(C)CC(=O)N(C)[C@H]3C/C=C\CCN(C3=O)[C@@H](Cc3ccc(C(F)(F)F)cc3)C(=O)N(C)CC(=O)N[C@@H](CCc3ccc(C(F)(F)F)c(OC)c3)C(=O)N2C1 [PP2163] | A (a compound having 10 or more and less than 20 is denoted as A) | A (a compound having 10 or more and less than 20 is denoted as A)
14 | 0.39 | CCO[C@@H]1C[C@H]2C(=O)NC3(CC(C)(C)C3)C(=O)N(C)[C@@H](C(CC)CC)C(=O)N(C)[C@H](C(=O)N3CCCC3)CC(=O)N(C)[C@@H](C)C(=O)N[C@@H]([C@@H](C)CC)C(=O)N(C)CC(=O)N(C)[C@H]3C/C=C\CCN(C3=O)[C@@H](Cc3ccc(C)cc3)C(=O)N(C)CC(=O)N[C@@H](CCc3cc(F)c(C(F)(F)F)c(F)c3)C(=O)N2C1 [PP2145] | A (a compound having 10 or more and less than 20 is denoted as A) | A (a compound having 10 or more and less than 20 is denoted as A)
15 | 0.33 | CCO[C@@H]1C[C@H]2C(=O)NC3(CC(C)(C)C3)C(=O)N(C)[C@@H](C(CC)CC)C(=O)N(C)[C@H](C(=O)N3CCCC3)CC(=O)N(C)[C@@H](COC)C(=O)N[C@@H]([C@@H](C)CC)C(=O)N(C)CC(=O)N(C)[C@H]3C/C=C\CCN(C3=O)[C@@H](Cc3ccc(C(F)(F)F)cc3)C(=O)N(C)CC(=O)N[C@@H](CCc3ccc(C(F)(F)F)c(OC)c3)C(=O)N2C1 [PP2159] | A (a compound having 10 or more and less than 20 is denoted as A) | AA (a compound having 20 or more is denoted as AA)
16 | 0.29 | CCO[C@@H]1C[C@H]2C(=O)NC3(CC(C)(C)C3)C(=O)N(C)[C@@H](C(CC)CC)C(=O)N(C)[C@H](C(=O)N(C)C)CC(=O)N(C)[C@@H](CC3CCC3)C(=O)N[C@@H]([C@@H](C)CC)C(=O)N(C)CC(=O)N(C)[C@H]3C/C=C\CCN(C3=O)[C@@H](Cc3ccc(C)cc3)C(=O)N(C)CC(=O)N[C@@H](CCc3cc(F)c(C(F)(F)F)c(F)c3)C(=O)N2C1 [PP2151] | A (a compound having 10 or more and less than 20 is denoted as A) | A (a compound having 10 or more and less than 20 is denoted as A)
